The source of these data is US7566737B2 (Genfit, priority 2002, dated 2009).

SMILES strings stand for the structures.

What all share (format): cell-based
Assay [1] deals with Human normal primary fibroblasts. The assay can be described thus: Antioxidant properties on cell cultures (carboxy-H2DCFDA fluorescence, AAPH stress), fibroblasts. As to conditions: 25 μM for 24 h, AAPH 750 μM. On the procedure:
The reduction in the intensity of the emitted fluorescence signal was determined in cells treated with the compounds in the following manner.
Prior to stress the cells with an oxidative agent such as AAPH (CAS number 2997-92-4), cells are incubated with compounds of interest at 25 μM for 24 h. Then the culture medium is discarded and cells are rinsed two times with PBS. Cells are then incubated 30 min at 37° C. with a cell-permeant indicator for reactive oxygen species that is nonfluorescent until the acetate groups are removed by intracellular esterases and oxidation occurs within the cell 5-(and-6)-carboxy-2′,7′-dichlorodihydrofluorescein diacetate (carboxy-H2DCFDA). The probes are prepared in PBS and incubated at the final concentration of 25 μM. After the incubation with the probe, cells are rinsed and incubated another 30 min with the oxidative solution containing AAPH at 750 μM in culture medium without phenol red and serum.
The fluorescence is then measured with a fluorimeter with the following wavelength, […].
Two different cell types have been tested with the inventive compounds. Human normal primary fibroblasts and HaCat cells which are a human keratinocyte cell line.

The target in assay [2] is T1, human PPARα (Homo sapiens, UniProt Q07869).
T1 construct: expressed in transfected cells; host or cells: RK13 or COS-7
T1 sequence (Q07869 239-466 limits assumed): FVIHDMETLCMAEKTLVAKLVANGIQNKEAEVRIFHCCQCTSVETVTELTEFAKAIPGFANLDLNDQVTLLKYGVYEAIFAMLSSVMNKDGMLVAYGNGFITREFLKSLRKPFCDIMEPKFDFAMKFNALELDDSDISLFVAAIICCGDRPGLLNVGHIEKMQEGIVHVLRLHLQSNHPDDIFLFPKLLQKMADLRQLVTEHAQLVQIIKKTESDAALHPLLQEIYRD
Description: PPARα/Gal4 transactivation system. On the procedure: (§1) PPAR activation was tested in vitro in RK13 or COS-7 fibroblast cell lines by measuring the transcriptional activity of chimeras composed of the DNA binding domain of the yeast Gal4 transcription factor and the ligand binding domain of the different PPARs. These latter results were then confirmed in cell lines according to the following protocols.
(§2) Culture protocols: RK13 were from ECACC (Porton Down, UK) and were grown in DMEM medium supplemented with 10% (V/V) fetal calf serum, 100 U/ml penicillin (Gibco, Paisley, UK) and 2 mM L-glutamine (Gibco, Paisley, UK). COS-7 cells were from ATCC and were grown in DMEM medium supplemented with 10% (V/V) fetal calf serum, 1% penicillin/streptomycine (Biochrom, AG), 1% of amino acids (Gibco) and 1% sodium pyruvate (Gibco).
(§3) The culture medium was changed every two days. Cells were kept at 37° C. in a humidified 95% air/5% CO2 atmosphere.
(§4) Description of plasmids used for transfection: The plasmids Gal4(RE)_TkpGL3, pGal4-hPPARα, pGal4-hPPARγ, pGal4-hPPARδ and pGal4-φ have been described in the literature (Raspe E et al., 1999). The pGal4-hPPARα, pGal4-hPPARγ and pGal4-hPPARδ constructs were obtained by cloning into the pGal4-φ vector PCR-amplified DNA fragments corresponding to the DEF domains of the human PPARs nuclear receptors.
(§5) Transfection of RK13: RK13 cells were seeded in 24-well culture dishes at 5×10^4 cells/well and transfected for 2 hours with the reporter plasmid Gal4(RE)_TkpGL3 (50 ng/well), the expression vectors pGal4-φ, pGal4-hPPARα, pGal4-hPPARγ and pGal-hPPARδ (100 ng/well) and the transfection efficiency control vector pRL-CMV (1 ng/well) according to the previously described protocol (Raspe E, Madsen L, Lefebvre A M, Leitersdorf I, Gelman L, Peinado-Onsurbe J, Dallongeville J, Fruchart J C, Berge R and Staels B, 1999), then incubated for 36 hours with the test compounds. RK13 cells were incubated with the different compounds at concentrations of 10, 30 and 100 μM or 1, 10 and 100 μM for 24 hours. At the end of the experiment, the cells were lysed (Gibco, Paisley, UK) and luciferase activity was determined with a Dual-Luciferase™ Reporter Assay System kit (Promega, Madison, Wis., USA) according to the supplier's instructions. The protein content of the cell extracts was then measured with the Bio-Rad Protein Assay (Bio-Rad, Munich, Germany) as directed by the supplier.
(§6) Transfection of COS7: Cells in suspension are transfected, in the presence of 10% (V/V) fetal calf serum, with 150 ng of DNA per well with a pGal4-PPAR/Gal4(RE)_TkpGL3 ratio of 1/10. Cells are then seeded in 96 well plates (4×10^4 cells/well) and incubated for 24 hours at 37° C. Activation with compounds is performed on 24 hours at 37° C. in culture medium without serum. At the end of the activation period, cells are lysed and luciferase activity is determined, using the Steady Glow Luciferase Kit (Promega), according to the supplier's instructions.

Assay [3] has as its target T2, human PPARγ (Homo sapiens, UniProt P37231).
T2 construct: expressed in transfected cells; host or cells: RK13 or COS-7
T2 sequence (P37231 238-503 limits assumed): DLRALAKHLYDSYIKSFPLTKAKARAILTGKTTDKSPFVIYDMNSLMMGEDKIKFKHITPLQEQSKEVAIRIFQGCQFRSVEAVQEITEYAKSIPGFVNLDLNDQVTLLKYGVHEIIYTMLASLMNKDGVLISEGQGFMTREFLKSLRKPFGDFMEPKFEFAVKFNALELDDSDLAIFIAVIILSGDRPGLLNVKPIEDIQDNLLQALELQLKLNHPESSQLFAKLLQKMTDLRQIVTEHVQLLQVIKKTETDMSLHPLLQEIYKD
Description: PPARγ/Gal4 transactivation system. As to conditions: 10 μM. The method, then:
as §1, §2, §3, §4, §5, §6

Assay [4] has as its system Human THP-1 monocytes differentiated in macrophages. Description: Anti-inflammatory properties: cytokine secretion by LPS-stimulated macrophages. As to conditions: pre-treated 24 hours, LPS 6 hours, vs non-treated cells. On the procedure: TNF-α (tumor necrosis factor alpha) and IL-6 (interleukin-6) are two important markers of the inflammatory response to stress. The anti-inflammatory property of the compound 29 was evaluated as follows:
Human THP-1 monocytes were differentiated in macrophages by a 72 h incubation with 30 ng/ml of PMA (Phorbol Myristate Acetate). Differentiated macrophages were then treated with the inventive compound 29 at different concentrations during 24 h in culture medium without serum. Stimulation with LPS 1 μg/ml was finally performed during 6 hours (LPS bacterial endotoxin (Escherichia coli 0111 :B4) (Sigma, France) was reconstituted in distilled water).
TNF-α and IL-6 secretion were quantified in the culture medium of LPS-stimulated cells with TNF-α and IL6 ELISA kits (Immunotech, France).

As for `Cc1cc(/C=C/C(=O)c2ccc(Br)cc2)cc(C)c1OC(C)(C)C(=O)O` [Compound 41, 1-[4-bromophenyl]-3-[3,5-dimethyl-4-carboxydimethylmethyloxyphenyl]prop-2-en-1-one], in assay [1], the “antioxidant properties on cell cultures (in words)” value is “antioxidant properties”. The molecule further returned a maximum induction factor in assay [2] (at the 10 or 1 μm concentrations) of 34.

The molecule `CSc1ccc(C(=O)/C=C/c2cc(C)c(OC(C)(C)C(=O)O)c(C)c2)cc1` [Compound 29, 1-[4-methylthiophenyl]-3-[3,5-dimethyl-4-carboxydimethylmethyloxyphenyl]prop-2-en-1-one] yielded a maximum induction factor in assay [3] of 33.9. In assay [1], the “antioxidant properties on cell cultures (in words)” value is recorded as “antioxidant properties”. For the same molecule, the IL-6 secretion entry in assay [4] (0.1, 1 and 10 μM) is on record as “decrease”. The TNF-α secretion entry in assay [4] (1 and 10 μM) is “decrease”. Besides, the “induction factor (luminescent signal relative to untreated cells)” value in assay [2] (1 μM) amounted to 28; in assay [2] (10 μM) it was 25.
